For 25 compounds, IC50 results are on record in publication PMC11053857, “Synthesis, In Vitro Biological Evaluation and Molecular Modeling of Benzimidazole-Based Pyrrole/Piperidine Hybrids Derivatives as Potential Anti-Alzheimer Agents” (Pharmaceuticals, 2024).

Like-named read-outs stand apart in the source and are kept apart here.

Assay [1] deals with acetylcholinesterase (AChE) (Homo sapiens, UniProt P22303). Description: biochemical. As for the experimental part:
The enzyme inhibition activities for acetylcholinesterase and butyrylcholinesterase were determined using the method of Ellman et al. with slight modifications. The 62.0 mM sodium phosphate buffer (pH 8.0, 880 μL) used contained 0.002 M of DTNB (5,5′-dithiobis-2-nitrobenzoic acid). AChE and BuChE solutions (40 μL) were added with the test compounds (40 μL) and kept at 25 °C for 10–15 min. The acetylthiocholine or butyrylthiocholine (40 μL) were added just before the initiation of the catalytic reaction. […] The inhibition reactions were repeated in triplicate with a Shimadzu spectrophotometer (Kyoto, Japan).

Assay [2] concerns the target butyrylcholinesterase (BuChE) (Homo sapiens, UniProt P06276). The experiment in a line: biochemical. Particulars: in vitro, 25 °C, pH 8.0, triplicate, standards listed separately for series 1–13 and 14–26. As for the experimental part:
The enzyme inhibition activities for acetylcholinesterase and butyrylcholinesterase were determined using the method of Ellman et al. with slight modifications. The 62.0 mM sodium phosphate buffer (pH 8.0, 880 μL) used contained 0.002 M of DTNB (5,5′-dithiobis-2-nitrobenzoic acid). AChE and BuChE solutions (40 μL) were added with the test compounds (40 μL) and kept at 25 °C for 10–15 min. The acetylthiocholine or butyrylthiocholine (40 μL) were added just before the initiation of the catalytic reaction. The enzymatic hydrolysis of the substrates encompassing the formation of yellow 5-thio-2-nitrobenzoate anion products was monitored at 412 nm (15 min). The inhibition reactions were repeated in triplicate with a Shimadzu spectrophotometer (Kyoto, Japan).

Setting [3] is: in vitro, 25 °C, pH 8.0, triplicate, standards listed separately for series 1–13 and 14–26, read-out: AChE Inhibition IC50 ± SEM.
[4] abbreviates: read-out: BuChE Inhibition IC50 ± SEM.

acetylcholinesterase (AChE), sequence (P22303 32-614, species assumed): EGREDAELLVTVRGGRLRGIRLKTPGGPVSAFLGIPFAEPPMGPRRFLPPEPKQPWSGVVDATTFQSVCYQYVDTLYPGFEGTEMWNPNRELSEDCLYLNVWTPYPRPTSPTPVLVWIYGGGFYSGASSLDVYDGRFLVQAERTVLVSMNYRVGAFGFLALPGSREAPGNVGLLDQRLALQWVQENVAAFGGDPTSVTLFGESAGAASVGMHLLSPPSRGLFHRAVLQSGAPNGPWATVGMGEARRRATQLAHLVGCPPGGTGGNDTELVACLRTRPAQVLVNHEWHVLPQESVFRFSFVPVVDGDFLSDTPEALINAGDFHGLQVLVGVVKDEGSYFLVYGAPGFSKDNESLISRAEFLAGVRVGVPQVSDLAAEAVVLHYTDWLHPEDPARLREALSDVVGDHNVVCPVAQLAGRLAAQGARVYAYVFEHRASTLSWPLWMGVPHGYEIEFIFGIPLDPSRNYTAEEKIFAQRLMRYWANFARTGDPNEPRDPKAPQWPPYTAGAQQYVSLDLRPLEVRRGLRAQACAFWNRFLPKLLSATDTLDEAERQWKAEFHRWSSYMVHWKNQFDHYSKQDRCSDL
butyrylcholinesterase (BuChE), sequence (P06276 29-602): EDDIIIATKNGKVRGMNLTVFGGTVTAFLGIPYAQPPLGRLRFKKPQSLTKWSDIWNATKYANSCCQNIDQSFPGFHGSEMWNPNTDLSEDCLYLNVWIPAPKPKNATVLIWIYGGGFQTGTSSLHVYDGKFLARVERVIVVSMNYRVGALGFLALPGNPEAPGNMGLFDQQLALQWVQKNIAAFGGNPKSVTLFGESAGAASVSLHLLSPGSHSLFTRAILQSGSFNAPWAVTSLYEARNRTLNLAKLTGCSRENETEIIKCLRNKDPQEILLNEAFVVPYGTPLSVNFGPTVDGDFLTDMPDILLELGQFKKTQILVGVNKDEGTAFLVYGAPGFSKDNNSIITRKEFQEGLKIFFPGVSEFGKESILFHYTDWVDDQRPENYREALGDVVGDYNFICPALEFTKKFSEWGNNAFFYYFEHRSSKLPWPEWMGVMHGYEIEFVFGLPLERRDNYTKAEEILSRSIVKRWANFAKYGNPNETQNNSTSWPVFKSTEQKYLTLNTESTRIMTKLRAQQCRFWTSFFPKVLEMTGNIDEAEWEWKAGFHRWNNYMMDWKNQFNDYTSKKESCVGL

A word on the IC50: it is the concentration that gives 50% inhibition. As for `COc1ccc2[nH]c(SC/C(=N/N=C/c3cc[nH]c3)c3ccc(C)cc3)nc2c1` [Compound 1, 2-(((E)-2-(((E)-(1H-pyrrol-3-yl)methylene)hydrazono)-2-(p-tolyl)ethyl)thio)-5-methoxy-1H-benzo[d]imidazole], the IC50 was determined as 27.11 ± 0.02 µM in assay [1] (setting [3]) and 31.03 ± 0.11 µM in assay [2] (setting [4]).
For `COc1ccc(/C(CSc2nc3cc(OC)ccc3[nH]2)=N\N=C\c2cc[nH]c2)cc1` [Compound 2, 2-(((E)-2-(((E)-(1H-pyrrol-3-yl)methylene)hydrazono)-2-(4-methoxyphenyl)ethyl)thio)-5-methoxy-1H-benzo[d]imidazole] the same measures were 20.04 ± 0.15 µM and 23.22 ± 0.15 µM.
For the compound `COc1ccc2[nH]c(SC/C(=N/N=C/c3cc[nH]c3)c3ccc(-c4ccccc4)cc3)nc2c1` [Compound 3, 2-(((E)-2-(((E)-(1H-pyrrol-3-yl)methylene)hydrazono)-2-([1,1′-biphenyl]-4-yl)ethyl)thio)-5-methoxy-1H-benzo[d]imidazole], the IC50 in assay [1] (setting [3]) came to 30.11 ± 0.23 µM; in assay [2] (setting [4]), 34.06 ± 0.14 µM.
Consider `COc1ccc2[nH]c(SC/C(=N/N=C/c3cc[nH]c3)c3ccccc3OC)nc2c1` [Compound 4, 2-(((E)-2-(((E)-(1H-pyrrol-3-yl)methylene)hydrazono)-2-(2-methoxyphenyl)ethyl)thio)-5-methoxy-1H-benzo[d]imidazole], for which the values for the IC50 in assay [1] (setting [3]) and in assay [2] (setting [4]) were 26.2 ± 0.41 µM and 29.2 ± 0.8 µM, respectively.
For `C(=N\N=C(\CSc1nc2ccccc2[nH]1)c1ccc(-c2ccccc2)cc1)/c1cc[nH]c1` [Compound 5, 2-(((E)-2-(((E)-(1H-pyrrol-3-yl)methylene)hydrazono)-2-([1,1′-biphenyl]-4-yl)ethyl)thio)-1H-benzo[d]imidazole] the same measures were 34.16 ± 0.03 µM and 37.21 ± 0.23 µM.
For `O=[N+]([O-])c1cccc(/C(CSc2nc3ccccc3[nH]2)=N\N=C\c2cc[nH]c2)c1` [Compound 6, 2-(((E)-2-(((E)-(1H-pyrrol-3-yl)methylene)hydrazono)-2-(3-nitrophenyl)ethyl)thio)-1H-benzo[d]imidazole] the same measures were 28.12 ± 0.09 µM and 32.14 ± 0.21 µM.
For `Cc1ccc(/C(CSc2nc3ccccc3[nH]2)=N\N=C\c2cc[nH]c2)cc1` [Compound 7, 2-(((E)-2-(((E)-(1H-pyrrol-3-yl)methylene)hydrazono)-2-(p-tolyl)ethyl)thio)-1H-benzo[d]imidazole] the same measures were 36 ± 0.41 µM and 39.55 ± 0.03 µM.
For `COc1ccccc1/C(CSc1nc2ccccc2[nH]1)=N\N=C\c1cc[nH]c1` [Compound 8, 2-(((E)-2-(((E)-(1H-pyrrol-3-yl)methylene)hydrazono)-2-(2-methoxyphenyl)ethyl)thio)-1H-benzo[d]imidazole], the IC50 in assay [1] (setting [3]) came to 21.03 ± 0.11 µM; in assay [2] (setting [4]), 25.1 ± 0.44 µM.
For `COc1ccc(/C(CSc2nc3ccccc3[nH]2)=N\N=C\c2cc[nH]c2)cc1` [Compound 9, 2-(((E)-2-(((E)-(1H-pyrrol-3-yl)methylene)hydrazono)-2-(4-methoxyphenyl)ethyl)thio)-1H-benzo[d]imidazole] the same measures were 24.16 ± 0.21 µM and 28.01 ± 0.13 µM.
As to `O=[N+]([O-])c1cccc(/C(CSc2nc3cc([N+](=O)[O-])ccc3[nH]2)=N\N=C\c2cc[nH]c2)c1` [Compound 10, 2-(((E)-2-(((E)-(1H-pyrrol-3-yl)methylene)hydrazono)-2-(3-nitrophenyl)ethyl)thio)-5-nitro-1H-benzo[d]imidazole], the IC50 in assay [1] is 19.4 ± 0.6 µM; in assay [2] (BuChE Inhibition IC50 ± SEM), 21.6 ± 0.61 µM.
Take `O=[N+]([O-])c1ccc2[nH]c(SC/C(=N/N=C/c3cc[nH]c3)c3ccc(-c4ccccc4)cc3)nc2c1` [Compound 11, 2-(((E)-2-(((E)-(1H-pyrrol-3-yl)methylene)hydrazono)-2-([1,1′-biphenyl]-4-yl)ethyl)thio)-5-nitro-1H-benzo[d]imidazole]: the IC50 was determined as 32.13 ± 0.18 µM in assay [1] (setting [3]) and 37.76 ± 0.08 µM in assay [2] (setting [4]).
Taken in the same sequence, the figures for `COc1ccc(/C(CSc2nc3cc([N+](=O)[O-])ccc3[nH]2)=N\N=C\c2cc[nH]c2)cc1` [Compound 12] were 23.1 ± 0.35 µM and 27.35 ± 0.06 µM.
For `Cc1ccc(/C(CSc2nc3cc([N+](=O)[O-])ccc3[nH]2)=N\N=C\c2cc[nH]c2)cc1` [Compound 13, 2-(((E)-2-(((E)-(1H-pyrrol-3-yl)methylene)hydrazono)-2-(p-tolyl)ethyl)thio)-5-nitro-1H-benzo[d]imidazole] the same measures were 27.08 ± 0.25 µM and 33.3 ± 0.42 µM.
Taken in the same sequence, the figures for `COc1ccc2[nH]c(SC/C(=N/N=C/N3CCCCC3)c3ccc(-c4ccccc4)cc3)nc2c1` [Compound 14, 2-(((E)-2-([1,1′-biphenyl]-4-yl)-2-(((E)-piperidin-1-ylmethylene)hydrazono)ethyl)thio)-5-methoxy-1H-benzo[d]imidazole] were 42.01 ± 0.02 µM and 47.03 ± 0.15 µM.
Regarding `COc1ccc2[nH]c(SC/C(=N/N=C/N3CCCCC3)c3ccccc3OC)nc2c1` [Compound 15, 5-methoxy-2-(((E)-2-(2-methoxyphenyl)-2-(((E)-piperidin-1-ylmethylene)hydrazono)ethyl)thio)-1H-benzo[d]imidazole], the IC50 in assay [1] (setting [3]) was 26.03 ± 0.15 µM; in assay [2] (setting [4]), 29.11 ± 0.14 µM.
Taken in the same sequence, the figures for `COc1ccc(/C(CSc2nc3cc(OC)ccc3[nH]2)=N\N=C\N2CCCCC2)cc1` [Compound 16, 5-methoxy-2-(((E)-2-(4-methoxyphenyl)-2-(((E)-piperidin-1ylmethylene) hydrazono)ethyl)thio)-1H-benzo[d]imidazole] were 28.13 ± 0.23 µM and 30.01 ± 0.23 µM.
For the compound `COc1ccc2[nH]c(SC/C(=N/N=C/N3CCCCC3)c3cccc([N+](=O)[O-])c3)nc2c1` [Compound 17, 5-methoxy-2-(((E)-2-(3-nitrophenyl)-2-(((E)-piperidin-1-ylmethylene)hydrazono)ethyl)thio)-1H-benzo[d]imidazole], the IC50 was found to be 23.1 ± 0.41 µM in assay [1] (setting [3]) and 27.3 ± 0.5 µM in assay [2] (setting [4]).
As to `COc1ccc2[nH]c(SC/C(=N/N=C/N3CCCCC3)c3ccc(C)cc3)nc2c1` [Compound 18, 5-methoxy-2-(((E)-2-(((E)-piperidin-1-ylmethylene)hydrazono)-2-(p-tolyl)ethyl)thio)-1H-benzo[d]imidazole], the IC50 in assay [1] (setting [3]) turned out to be 36.15 ± 0.03 µM; in assay [2] (setting [4]), 39.11 ± 0.13 µM.
On to `Cc1ccc(/C(CSc2nc3ccccc3[nH]2)=N\N=C\N2CCCCC2)cc1` [Compound 19, 2-(((E)-2-(((E)-piperidin-1-ylmethylene)hydrazono)-2-(p-tolyl)ethyl)thio)-1H-benzo[d]imidazole], for which the figures for the IC50 in assay [1] (setting [3]) and in assay [2] (setting [4]) were 33.19 ± 0.09 µM and 36.22 ± 0.11 µM, respectively.
Taken in the same sequence, the figures for `O=[N+]([O-])c1cccc(/C(CSc2nc3ccccc3[nH]2)=N\N=C\N2CCCCC2)c1` [Compound 20, 2-(((E)-2-(3-nitrophenyl)-2-(((E)-piperidin-1-ylmethylene)hydrazono)ethyl)thio)-1H-benzo[d]imidazole] were 29.04 ± 0.22 µM and 31.25 ± 0.03 µM.
For `COc1ccccc1/C(CSc1nc2ccccc2[nH]1)=N\N=C\N1CCCCC1` [Compound 21, 2-(((E)-2-(2-methoxyphenyl)-2-(((E)-piperidin-1-ylmethylene)hydrazono)ethyl)thio)-1H-benzo[d]imidazole] the same measures were 30.1 ± 0.41 µM and 38.02 ± 0.04 µM.
Taken in the same sequence, the figures for `COc1ccc(/C(CSc2nc3ccccc3[nH]2)=N\N=C\N2CCCCC2)cc1` [Compound 22, 2-(((E)-2-(4-methoxyphenyl)-2-(((E)-piperidin-1-ylmethylene)hydrazono)ethyl)thio)-1H-benzo[d]imidazole] were 34.02 ± 0.11 µM and 34.31 ± 0.12 µM.
With `O=[N+]([O-])c1ccc2[nH]c(SC/C(=N/N=C/N3CCCCC3)c3ccc(-c4ccccc4)cc3)nc2c1` [Compound 23], the IC50 in assay [1] (setting [3]) turned out to be 38.2 ± 0.4 µM; in assay [2] (setting [4]), 42.27 ± 0.41 µM.
Taken in the same sequence, the figures for `COc1ccc(/C(CSc2nc3cc([N+](=O)[O-])ccc3[nH]2)=N\N=C\N2CCCCC2)cc1` [Compound 24, 2-(((E)-2-(4-methoxyphenyl)-2-(((E)-piperidin-1-ylmethylene)hydrazono)ethyl)thio)-5-nitro-1H-benzo[d]imidazole] were 32.05 ± 0.14 µM and 39.66 ± 0.24 µM.
Taken in the same sequence, the figures for `Cc1ccc(/C(CSc2nc3cc([N+](=O)[O-])ccc3[nH]2)=N\N=C\N2CCCCC2)cc1` [Compound 25, 5-nitro-2-(((E)-2-(((E)-piperidin-1-ylmethylene)hydrazono)-2-(p-tolyl)ethyl)thio)-1H-benzo[d]imidazole] were 35.01 ± 0.25 µM and 32.25 ± 0.12 µM.
